Measured values as given in the NIST ThermoML archive (doi:10.1016/j.jct.2012.04.017).
± gives the expanded uncertainty stated by the source.

Conditions: 101.33 kPa, Liquid, Vibrating tube method

| Structure (SMILES) | mass density (298.15 K) | mass density (308.15 K) | mass density (318.15 K) | mass density (328.15 K) | mass density (338.15 K) | mass density (348.15 K) |
| --- | --- | --- | --- | --- | --- | --- |
| CCCCCCCCCCn1cc[n+](C)c1.N#C[B-](C#N)(C#N)C#N [1-decyl-3-methyl-1H-imidazolium tetracyanoborate] | 955.57 ± 0.12 kg/m3 |  |  |  |  |  |
| CCCCCCCCCCCCCC[P+](CCCCCC)(CCCCCC)CCCCCC.N#C[B-](C#N)(C#N)C#N [trihexyltetradecylphosphonium tetracyanoborate] | 891.05 ± 0.23 kg/m3 | 884.97 ± 0.23 kg/m3 | 879.06 ± 0.23 kg/m3 | 873.16 ± 0.23 kg/m3 | 867.25 ± 0.24 kg/m3 | 861.36 ± 0.24 kg/m3 |
| CCCCCCn1cc[n+](C)c1.N#C[B-](C#N)(C#N)C#N [1-hexyl-3-methylimidazolium tetracyanoborate] | 983.03 ± 0.24 kg/m3 |  |  |  |  |  |
| CCCCO [butan-1-ol] | 798.06 ± 0.15 kg/m3 |  |  |  |  |  |
